Laboratory results published in ChEMBL document CHEMBL1141559, “Alpha-hydroxy amides as a novel class of bradykinin B1 selective antagonists” (Bioorg Med Chem Lett, 2008).

Key:
[1] = Oral bioavailability in Sprague-Dawley rat at 10 mg/kg; type: ADME, organism-based; conditions: in vivo
[2] = Half life in Sprague-Dawley rat at 10 mg/kg, po or 2 mg/kg, iv; type: ADME, organism-based; conditions: in vivo
[3] = Clearance in Sprague-Dawley rat at 10 mg/kg, po or 2 mg/kg, iv; type: ADME, organism-based; conditions: in vivo
[4] = Volume of distribution in Sprague-Dawley rat at 10 mg/kg, po or 2 mg/kg, iv; type: ADME, organism-based; conditions: in vivo, read-out: Vdss
[5] = Half life in Beagle dog at 0.25 mg/kg, iv; type: ADME, organism-based, Canis lupus familiaris; parameters: dose 0.25 mg/kg, route intravenous; conditions: in vivo
[6] = Clearance in Beagle dog at 0.25 mg/kg, iv; type: ADME, organism-based, Canis lupus familiaris; parameters: dose 0.25 mg/kg, route intravenous; conditions: in vivo
[7] = Volume of distribution in Beagle dog at 0.25 mg/kg, iv; type: ADME, organism-based, Canis lupus familiaris; parameters: dose 0.25 mg/kg, route intravenous; conditions: in vivo
B1 bradykinin receptor [8] = target: T1, B1 bradykinin receptor (Homo sapiens, UniProt P46663); assay: Binding affinity to human bradykinin B1 receptor expressed in CHO cells; type: cell-based
T1 sequence (P46663 whole entry): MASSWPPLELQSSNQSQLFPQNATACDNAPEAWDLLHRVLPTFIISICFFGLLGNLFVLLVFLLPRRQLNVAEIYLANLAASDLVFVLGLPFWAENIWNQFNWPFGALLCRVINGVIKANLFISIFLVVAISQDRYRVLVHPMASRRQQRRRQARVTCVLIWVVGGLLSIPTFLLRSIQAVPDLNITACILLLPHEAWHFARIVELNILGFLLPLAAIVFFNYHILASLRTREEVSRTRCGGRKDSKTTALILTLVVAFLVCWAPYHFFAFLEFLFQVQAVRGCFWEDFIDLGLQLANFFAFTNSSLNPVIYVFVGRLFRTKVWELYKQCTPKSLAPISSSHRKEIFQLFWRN

B1 bradykinin receptor [9] = target: T1, B1 bradykinin receptor; assay: […] human bradykinin B1 receptor by FLIPR assay
LLC-PK1 = assay: Ratio of permeability from basolateral to apical over apical to basolateral side of pig MDR1 transfected LLC-PK1 cells; type: ADME, cell-based, Sus scrofa
[10] = Apparent permeability across pig LLC-PK1 cells; type: ADME, cell-based, Sus scrofa
Cytochrome P450 3A4 = Cytochrome P450 3A4 (Homo sapiens, UniProt P08684); assay: Inhibition of CYP3A4; type: ADME
Cytochrome P450 3A4, sequence (P08684 whole entry): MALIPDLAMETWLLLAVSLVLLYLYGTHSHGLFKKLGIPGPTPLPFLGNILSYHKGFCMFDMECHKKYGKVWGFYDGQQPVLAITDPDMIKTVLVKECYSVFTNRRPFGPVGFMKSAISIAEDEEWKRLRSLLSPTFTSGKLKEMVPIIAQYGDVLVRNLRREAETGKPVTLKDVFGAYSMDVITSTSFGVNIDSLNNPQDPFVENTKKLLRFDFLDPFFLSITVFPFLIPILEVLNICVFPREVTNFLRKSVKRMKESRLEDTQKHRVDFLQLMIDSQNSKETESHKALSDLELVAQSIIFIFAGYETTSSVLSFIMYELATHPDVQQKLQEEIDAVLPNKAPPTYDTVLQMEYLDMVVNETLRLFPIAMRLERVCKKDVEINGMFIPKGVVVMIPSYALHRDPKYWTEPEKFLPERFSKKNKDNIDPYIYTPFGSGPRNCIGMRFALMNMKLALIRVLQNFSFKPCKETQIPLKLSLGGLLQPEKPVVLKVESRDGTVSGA

Cytochrome P450 2C9 = Cytochrome P450 2C9 (Homo sapiens, UniProt P11712); assay: Inhibition of CYP2C9; type: ADME
Cytochrome P450 2C9, sequence (P11712 whole entry): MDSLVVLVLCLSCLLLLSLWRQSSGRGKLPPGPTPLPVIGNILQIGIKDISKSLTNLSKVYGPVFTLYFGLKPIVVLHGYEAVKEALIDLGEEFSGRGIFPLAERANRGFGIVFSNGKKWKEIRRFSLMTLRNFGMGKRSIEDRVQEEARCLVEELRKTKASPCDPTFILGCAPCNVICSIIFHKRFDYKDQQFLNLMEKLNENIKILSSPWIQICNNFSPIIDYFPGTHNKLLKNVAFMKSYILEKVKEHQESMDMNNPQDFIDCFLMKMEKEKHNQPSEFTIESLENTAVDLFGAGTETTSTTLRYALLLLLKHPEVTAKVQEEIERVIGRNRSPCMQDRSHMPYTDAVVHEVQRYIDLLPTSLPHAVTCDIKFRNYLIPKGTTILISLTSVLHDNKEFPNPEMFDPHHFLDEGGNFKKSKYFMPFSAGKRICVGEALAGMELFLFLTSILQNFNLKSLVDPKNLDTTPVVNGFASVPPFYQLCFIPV

Cytochrome P450 2D6 = Cytochrome P450 2D6 (Homo sapiens, UniProt P10635); assay: Inhibition of CYP2D6; type: ADME
Cytochrome P450 2D6, sequence (P10635 whole entry): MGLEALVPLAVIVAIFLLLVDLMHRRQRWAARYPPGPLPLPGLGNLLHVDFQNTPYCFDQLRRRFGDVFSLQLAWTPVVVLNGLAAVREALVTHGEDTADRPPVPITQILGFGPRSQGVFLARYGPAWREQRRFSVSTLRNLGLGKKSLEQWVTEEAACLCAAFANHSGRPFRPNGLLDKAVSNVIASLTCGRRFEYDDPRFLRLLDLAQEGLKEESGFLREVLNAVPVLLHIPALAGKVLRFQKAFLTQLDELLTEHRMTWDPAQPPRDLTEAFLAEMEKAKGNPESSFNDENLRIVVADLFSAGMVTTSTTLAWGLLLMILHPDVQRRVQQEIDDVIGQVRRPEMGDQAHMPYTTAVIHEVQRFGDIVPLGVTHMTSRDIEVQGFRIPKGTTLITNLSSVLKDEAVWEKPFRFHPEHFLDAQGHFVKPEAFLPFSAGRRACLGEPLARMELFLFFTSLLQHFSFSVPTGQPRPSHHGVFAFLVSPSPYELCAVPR

[11] = Oral bioavailability in Beagle dog at 3 mg/kg by cassette dosing; type: ADME, organism-based, Canis lupus familiaris; conditions: in vivo
[12] = Half life in Beagle dog at 3 mg/kg, po or 1 mg/kg, iv by cassette dosing; type: ADME, organism-based, Canis lupus familiaris; conditions: in vivo
[13] = Clearance in Beagle dog at 3 mg/kg, po or 1 mg/kg, iv by cassette dosing; type: ADME, organism-based, Canis lupus familiaris; conditions: in vivo
[14] = Oral bioavailability in rhesus monkey at 1 mg/kg; type: ADME, organism-based, Macaca mulatta; conditions: in vivo
[15] = Half life in rhesus monkey at 1 mg/kg, po or 1 mg/kg, iv; type: ADME, organism-based, Macaca mulatta; conditions: in vivo
[16] = Clearance in rhesus monkey at 1 mg/kg, po or 1 mg/kg, iv; type: ADME, organism-based, Macaca mulatta; conditions: in vivo

SMILES: COC(=O)c1c(Cl)cc(Cl)cc1-c1cnc([C@@H](C)NC(=O)[C@@](C)(O)C(F)(F)F)c(F)c1
- bioavailability [1]: 47%
- half-life [2]: 5.6 h
- clearance [3]: 7.8 mL/min/kg
- Vd [4]: 1.2 L/kg
- half-life [5]: 3.6 h
- clearance [6]: 3.2 mL/min/kg
- Vd [7]: 0.73 L/kg
- Ki (B1 bradykinin receptor [8]): 0.35 nM
- IC50 (B1 bradykinin receptor [9]): 3.93 nM
- Ratio (LLC-PK1): 1.6
- Papp [10]: 23 ×10⁻⁶ cm/s

SMILES: CCC(O)(CC)C(=O)NCc1ccc(-c2cccc(F)c2C(=O)OC)cc1F
- Ki (B1 bradykinin receptor [8]): 1090 nM

SMILES: COC(=O)c1c(F)cccc1-c1ccc(CNC(=O)C(O)(C(F)(F)F)C(F)(F)F)c(F)c1
- Ki (B1 bradykinin receptor [8]): 95 nM

SMILES: COC(=O)c1c(F)cccc1-c1ccc(CNC(=O)CO)c(F)c1
- Ki (B1 bradykinin receptor [8]): 516 nM

SMILES: Cc1noc(-c2c(Cl)cc(Cl)cc2-c2cnc([C@@H](C)NC(=O)[C@@](C)(O)C(F)(F)F)c(F)c2)n1
- bioavailability [1]: 21%
- half-life [2]: 3.9 h
- clearance [3]: 20 mL/min/kg
- Vd [4]: 1 L/kg
- half-life [5]: 9.5 h
- clearance [6]: 0.91 mL/min/kg
- Vd [7]: 0.66 L/kg
- Ki (B1 bradykinin receptor [8]): 0.79 nM
- IC50 (B1 bradykinin receptor [9]): 6.65 nM
- Ratio (LLC-PK1): 1.3
- Papp [10]: 33 ×10⁻⁶ cm/s

SMILES: C[C@@H](NC(=O)[C@@](C)(O)C(F)(F)F)c1ncc(-c2cc(Cl)cc(F)c2-c2nnn(C)n2)cc1F
- bioavailability [1]: 53%
- half-life [2]: 27 h
- clearance [3]: 1 mL/min/kg
- Vd [4]: 0.54 L/kg
- half-life [5]: 38 h
- clearance [6]: 0.22 mL/min/kg
- Vd [7]: 0.47 L/kg
- IC50 (Cytochrome P450 3A4): > 10000 nM
- IC50 (Cytochrome P450 2C9): > 10000 nM
- IC50 (Cytochrome P450 2D6): > 10000 nM
- Ki (B1 bradykinin receptor [8]): 0.59 nM
- IC50 (B1 bradykinin receptor [9]): 4.9 nM
- Ratio (LLC-PK1): 2.8
- Papp [10]: 36 ×10⁻⁶ cm/s

SMILES: Cc1noc(-c2c(F)cc(Cl)cc2-c2cnc([C@@H](C)NC(=O)[C@@](C)(O)C(F)(F)F)c(F)c2)n1
- bioavailability [1]: 32%
- half-life [2]: 1.2 h
- clearance [3]: 22 mL/min/kg
- Vd [4]: 1.3 L/kg
- half-life [5]: 15 h
- clearance [6]: 1 mL/min/kg
- Vd [7]: 1.2 L/kg
- Ki (B1 bradykinin receptor [8]): 0.66 nM
- IC50 (B1 bradykinin receptor [9]): 6.65 nM
- Ratio (LLC-PK1): 1.7
- Papp [10]: 35 ×10⁻⁶ cm/s

SMILES: COC(=O)c1c(F)cccc1-c1ccc(CNC(=O)[C@@H](O)C(C)C)c(F)c1
- Ki (B1 bradykinin receptor [8]): 71.5 nM

SMILES: COC(=O)c1c(F)cccc1-c1ccc(CNC(=O)[C@@H](O)C(F)(F)F)c(F)c1
- Ki (B1 bradykinin receptor [8]): 109 nM

SMILES: COC(=O)c1c(F)cccc1-c1ccc(CNC(=O)[C@H](C)O)c(F)c1
- Ki (B1 bradykinin receptor [8]): 660 nM

SMILES: C[C@@H](NC(=O)[C@@](C)(O)C(F)(F)F)c1ncc(-c2cc(Cl)cc(F)c2-c2nnn(C)n2)cc1Cl
- bioavailability [1]: 71%
- half-life [2]: 4.9 h
- clearance [3]: 2.4 mL/min/kg
- Vd [4]: 0.86 L/kg
- half-life [5]: 9.8 h
- clearance [6]: 1.3 mL/min/kg
- Vd [7]: 0.74 L/kg
- Ki (B1 bradykinin receptor [8]): 0.43 nM
- Ratio (LLC-PK1): 1.8
- Papp [10]: 26 ×10⁻⁶ cm/s

SMILES: COC(=O)c1c(F)cccc1-c1ccc(CNC(=O)[C@@H](O)C(C)(C)C)c(F)c1
- Ki (B1 bradykinin receptor [8]): 88.5 nM

SMILES: COC(=O)c1c(F)cccc1-c1ccc(CNC(=O)[C@@](C)(O)C(C)C)c(F)c1
- Ki (B1 bradykinin receptor [8]): 83.5 nM

SMILES: COC(=O)c1c(F)cccc1-c1ccc(CNC(=O)[C@H](O)C(F)(F)F)c(F)c1
- Ki (B1 bradykinin receptor [8]): 479 nM

SMILES: COC(=O)c1c(F)cccc1-c1ccc(CNC(=O)[C@@](C)(O)C(F)(F)F)c(F)c1
- half-life [5]: 1.4 h
- clearance [6]: 16 mL/min/kg
- Vd [7]: 1.2 L/kg
- Ki (B1 bradykinin receptor [8]): 24.5 nM
- IC50 (B1 bradykinin receptor [9]): 43.6 nM
- Ratio (LLC-PK1): 1.6
- Papp [10]: 32 ×10⁻⁶ cm/s

SMILES: Cc1nc(-c2c(F)cc(Cl)cc2-c2cnc([C@@H](C)NC(=O)[C@@](C)(O)C(F)(F)F)c(F)c2)no1
- bioavailability [1]: 34%
- half-life [2]: 2 h
- clearance [3]: 4.9 mL/min/kg
- Vd [4]: 0.52 L/kg
- half-life [5]: 17 h
- clearance [6]: 0.42 mL/min/kg
- Vd [7]: 0.51 L/kg
- bioavailability [11]: 84%
- half-life [12]: 11 h
- clearance [13]: 0.45 mL/min/kg
- bioavailability [14]: 52%
- half-life [15]: 1.3 h
- clearance [16]: 7.1 mL/min/kg
- Papp [10]: 27 ×10⁻⁶ cm/s

SMILES: COC(=O)c1c(F)cccc1-c1ccc(CNC(=O)[C@@H](C)O)c(F)c1
- Ki (B1 bradykinin receptor [8]): 1050 nM

SMILES: COC(=O)c1c(F)cccc1-c1ccc(CNC(=O)[C@](C)(O)C(F)(F)F)c(F)c1
- Ki (B1 bradykinin receptor [8]): 579 nM

SMILES: COC(=O)c1c(F)cccc1-c1ccc(CNC(=O)C2(NC(=O)C(F)(F)F)CC2)c(F)c1
- Ratio (LLC-PK1): 4.1

SMILES: COC(=O)c1c(F)cccc1-c1ccc(CNC(=O)C(C)(C)O)c(F)c1
- Ki (B1 bradykinin receptor [8]): 125 nM

SMILES: COC(=O)c1c(F)cccc1-c1ccc(CNC(=O)C2(O)CC2)c(F)c1
- Ki (B1 bradykinin receptor [8]): 59.1 nM
